Here are results for 33 molecules from patent US5045566A, “Novel imidate insecticides” (ICI Americas Inc., priority 1989, dated 1991).

Each structure is given as a SMILES string.

Holding throughout (format): in vivo
In test [1] the test system is Housefly [Musca domestica]. The test is described as follows: Housefly contact mortality in dishes (HF), 48 hours. The note with it: μg of test compound per 25 female flies. The method in brief: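 Residual contact test: acetone dilution, 0.01% peanut oil spreader, solvent evaporated; 25 ♀ flies (1-2 d old) per cage; sugar-water plug; 48 h mortality read. LC50 in μg/25 female flies, from dose-mortality curves; top dose 100 μg/25 flies.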

The subject of test [2] is Tobacco Budworm [Heliothis virescens (Fabricius)] eggs. The test is described as follows: Tobacco budworm eggs (TBW-E). Conditions: percent in solution; 2-day old eggs. The gist of the method:
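2-day eggs on paper towel, acetone dip, 0.1% and below; petri dish with larval diet, 78° F. Mortality read after control hatch and larval feeding. LC50 = % compound in solution, from dose-mortality curve.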

The test system of test [3] is Black Bean Aphid [Aphis fabae (Scop.)]. The test is described as follows: Black bean aphid spray test on nasturtium (BBA), 48 hours. The note with it: percent of test compound in sprayed solution. The gist of the method:
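LC50, given as percent test compound in the sprayed liquid, was calculated from dosage-mortality curves using concentrations from 0.05% downward. Sprays in 50:50 acetone-water went to runoff on ~5 cm nasturtiums carrying 25-50 aphids of mixed ages, one day after infestation. Deaths were counted 48 h later under greenhouse conditions.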

For test [4], the system named is Cabbage Looper [Trichoplusia ni (Hubner)]. Nature of the test: Cabbage looper leaf dip (CL), 3-5 days. The note with it: percent in solution, second-instar larvae. The method in brief:
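LC50 values, given as percent test compound in solution, were calculated from dosage-mortality curves. Squash cotyledons were immersed 2-3 s in acetone-water (50-50) dilutions starting at 0.1%, dried on a screen, then infested with five second-instar larvae. Mortality was read 3-5 days on.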

With `CC(C)C(=Nc1ccc(C(C)(C)C)cc1)OCc1cccc(Oc2ccc(F)cc2)c1` [Compound 235], in test [1], the “LC50 HF” value was > 100 µg. The “LC50 TBW E (eggs)” value in test [2] is given as > 0.1%. Moreover, the “LC50 BBA” value in test [3] was 0.01%. Also, the “LC50 CL” value in test [4] was found to be 0.004%.
The corresponding values for `Cc1cc(N=C(OCc2cccc(Oc3ccc(F)cc3)c2)C(C)C)ccc1F` [Compound 236] are 7 µg, 0.06%, 0.003% and 0.0018%.
For the molecule `CC(C)C(=Nc1ccc(Cl)cc1)OCc1cccc(Oc2ccc(Br)cc2)c1` [Compound 237], the “LC50 HF” value in test [1] is 50 µg. In test [2], the “LC50 TBW E (eggs)” value came out at 0.075%. Moreover, in test [3], the “LC50 BBA” value came to 0.01%. Besides, the “LC50 CL” value in test [4] stood at 0.0006%.
The corresponding values for `CC(C)C(=Nc1ccc2c(c1)OC(C)(C)O2)OCc1cccc(Oc2ccc(Cl)cc2)c1` [Compound 241] are > 100 µg, > 0.1%, < 0.05% and 0.0004%.
Consider `CC(C)C(=Nc1ccc2c(c1)CCO2)OCc1cccc(Oc2ccccc2)c1` [Compound 243], for which the “LC50 HF” value in test [1] came out at 9 µg. In addition, the “LC50 TBW E (eggs)” value in test [2] was > 0.1%. In test [3], the “LC50 BBA” value stood at 0.01%. For the same molecule, the “LC50 CL” value in test [4] was 0.005%.
The corresponding values for `CC(C)C(=Nc1ccc2c(c1)OCO2)OCc1cccc(Oc2ccc(C(F)(F)F)cc2)c1` [Compound 246] are 60 µg, > 0.1%, > 0.05% and 0.004%.
`CC(C)C(=Nc1ccc(F)c(Cl)c1)OCc1cccc(Oc2ccc(C(F)(F)F)cc2)c1` [Compound 247]: the “LC50 HF” value in test [1] was > 100 µg. Also, the “LC50 TBW E (eggs)” value in test [2] was > 0.1%. Further, the “LC50 BBA” value in test [3] is > 0.05%. The “LC50 CL” value in test [4] was found to be 0.009%.
With `COc1cc(N=C(OCc2cccc(Oc3ccccc3)c2)C(C)C)cc(OC)c1OC` [Compound 248], the “LC50 HF” value in test [1] turned out to be 40 µg. Besides, the “LC50 TBW E (eggs)” value in test [2] is on record as > 0.1%. For the same molecule, the “LC50 BBA” value in test [3] is > 0.05%. In addition, the “LC50 CL” value in test [4] was 0.02%.
`Cc1cccc(N=C(OCc2cccc(Oc3ccccc3)c2)C(C)C)c1C` [Compound 249]: the “LC50 HF” value in test [1] came out at 36 µg. In addition, in test [2], the “LC50 TBW E (eggs)” value stood at 0.035%. The “LC50 BBA” value in test [3] amounted to 0.0003%. In test [4], the “LC50 CL” value is 0.0025%.
For `Cc1ccc(C)c(N=C(OCc2cccc(Oc3ccccc3)c2)C(C)C)c1` [Compound 250], the “LC50 HF” value in test [1] came out at 38 µg. Moreover, in test [2], the “LC50 TBW E (eggs)” value turned out to be 0.038%. Also, in test [3], the “LC50 BBA” value was 0.0006%. The “LC50 CL” value in test [4] is given as 0.004%.
In the case of `CC(C)C(=Nc1ccc(Br)c(Br)c1)OCc1cccc(Oc2ccc(F)cc2)c1` [Compound 251], the “LC50 HF” value in test [1] is 25 µg. Also, the “LC50 TBW E (eggs)” value in test [2] came out at 0.06%. For the same molecule, the “LC50 BBA” value in test [3] amounted to 0.001%. Moreover, the “LC50 CL” value in test [4] is listed as 0.0005%.
Regarding `CC(C)C(=Nc1ccc(Br)c(Br)c1)OCc1cccc(Oc2ccccc2)c1` [Compound 252], the “LC50 HF” value in test [1] came to 34 µg. In addition, the “LC50 TBW E (eggs)” value in test [2] worked out at 0.04%. Besides, the “LC50 BBA” value in test [3] is 0.002%. The “LC50 CL” value in test [4] came out at 0.0035%.
In the same order, the values of `CC(C)C(=Nc1cccc(Cl)c1)OCc1cccc(Oc2ccc(Br)cc2)c1` [Compound 260] are 22 µg, > 0.1%, 0.006% and 0.00075%.
The corresponding values for `CCC(C)C(=Nc1ccc(F)c(Cl)c1)OCc1ccc(F)c(Oc2ccccc2)c1` (stereo not drawn) [Compound 261] are 24 µg, 0.05%, 0.002% and 0.001%.
In the case of `Cc1ccc(Cl)cc1N=C(OCc1cccc(Oc2ccccc2)c1)C(C)C` [Compound 263], the “LC50 HF” value in test [1] is > 100 µg. In test [2], the “LC50 TBW E (eggs)” value is reported as > 0.1%. Moreover, the “LC50 BBA” value in test [3] is listed as > 0.05%. In addition, in test [4], the “LC50 CL” value is on record as 0.05%.
In the same order, the values of `COc1ccc(Cl)cc1N=C(OCc1cccc(Oc2ccccc2)c1)C(C)C` [Compound 264] are > 100 µg, > 0.1%, > 0.05% and 0.03%.
In the same order, the values of `CC(C)C(=Nc1ccc(F)cc1)OCc1cccc(Oc2ccc(F)c(F)c2)c1` [Compound 265] are 10 µg, 0.07%, > 0.05% and 0.00025%.
The corresponding values for `CC(C)C(=Nc1cccc(SC(F)(F)F)c1)OCc1cccc(Oc2ccc(F)cc2)c1` [Compound 272] are > 100 µg, > 0.1%, > 0.05% and 0.0024%.
Consider `CC(C)C(=Nc1ccc2c(c1)OCO2)OCc1cc(Oc2ccc(F)cc2)ccc1Cl` [Compound 274], for which the “LC50 HF” value in test [1] is > 100 µg. Moreover, the “LC50 TBW E (eggs)” value in test [2] was > 0.1%. Besides, the “LC50 BBA” value in test [3] is > 0.05%. In test [4], the “LC50 CL” value amounted to 0.1%.
As for `CC(C)C(=Nc1ccc(F)c(Cl)c1)OCc1cc(F)cc(Oc2ccc(F)cc2)c1` [Compound 327], in test [1], the “LC50 HF” value was > 100 µg. In addition, the “LC50 TBW E (eggs)” value in test [2] was > 0.1%. In test [3], the “LC50 BBA” value is > 0.05%. In test [4], the “LC50 CL” value is on record as 0.005%.
With `CC(C)CC(=Nc1ccc(C(C)C)cc1)OCc1cccc(Oc2ccc(F)cc2)c1` [Compound 329], in test [1], the “LC50 HF” value is 7 µg. Also, the “LC50 TBW E (eggs)” value in test [2] is listed as > 0.1%. In addition, the “LC50 BBA” value in test [3] is recorded as > 0.05%. Moreover, the “LC50 CL” value in test [4] worked out at 0.033%.
Turning to `CC(C)C(=Nc1ccc(F)c(Cl)c1)OCc1cccc(Oc2ccc(I)cc2)c1` [Compound 447], the “LC50 HF” value in test [1] stood at 33 µg. Further, the “LC50 TBW E (eggs)” value in test [2] is given as > 0.1%. Besides, the “LC50 BBA” value in test [3] was > 0.05%. The “LC50 CL” value in test [4] was 0.0009%.
In the same order, the values of `CC(C)C(=Nc1ccc(F)c(Cl)c1)OCc1ccc(Cl)c(Oc2ccc(F)cc2)c1` [Compound 448] are 16 µg, 0.03%, > 0.05% and 0.003%.
The corresponding values for `Fc1c(F)c(F)c(COC(=Nc2cccc(Cl)c2Cl)C(Cl)Cl)c(F)c1F` [Compound 454] are > 100 µg, > 0.1%, > 0.05% and 0.03%.
For the molecule `Cc1c(COC(=Nc2ccc(Cl)cc2)C(C)C)cccc1-c1ccccc1` [Compound 455], the “LC50 HF” value in test [1] is > 100 µg. In addition, the “LC50 TBW E (eggs)” value in test [2] was > 0.1%. The “LC50 BBA” value in test [3] turned out to be 0.01%. In addition, the “LC50 CL” value in test [4] was found to be 0.0025%.
In the case of `Cc1c(COC(=Nc2ccc(F)cc2)C(C)C)cccc1-c1ccccc1` [Compound 458], the “LC50 HF” value in test [1] worked out at 100 µg. The “LC50 TBW E (eggs)” value in test [2] is reported as > 0.05%. Also, the “LC50 BBA” value in test [3] is listed as > 0.05%. In test [4], the “LC50 CL” value turned out to be 0.007%.
Take `CC(C)C(=Nc1ccc2c(c1)OC(C)(C)O2)OCc1cccc(Oc2ccc(Cl)cc2)n1` [Compound 468]: the “LC50 HF” value in test [1] was found to be 50 µg. Moreover, the “LC50 TBW E (eggs)” value in test [2] is recorded as > 0.1%. Also, in test [3], the “LC50 BBA” value was found to be 0.05%. Besides, the “LC50 CL” value in test [4] is given as > 0.1%.
Take `CC(C)C(=Nc1cccc(C(F)(F)F)c1)OCc1cccc(Oc2ccncc2)c1` [Compound 469]: in test [1], the “LC50 HF” value turned out to be 40 µg. Also, the “LC50 TBW E (eggs)” value in test [2] was > 0.1%. The “LC50 BBA” value in test [3] is reported as > 0.05%. Also, the “LC50 CL” value in test [4] turned out to be 0.02%.
Regarding `CC(C)C(=Nc1ccc(F)c(Cl)c1)OCc1cccc(Oc2ccncc2)c1` [Compound 470], the “LC50 HF” value in test [1] came out at 25 µg. Moreover, in test [2], the “LC50 TBW E (eggs)” value is > 0.1%. Further, the “LC50 BBA” value in test [3] is listed as > 0.05%. For the same molecule, the “LC50 CL” value in test [4] stood at 0.02%.
In the same order, the values of `C=CCOc1cccc(COC(=Nc2cccc(C(F)(F)F)c2)C(C)C)c1` [Compound 480] are > 100 µg, > 0.1%, > 0.05% and 0.01%.
In the same order, the values of `CC(C)C(=Nc1ccc(F)c(Cl)c1)OC(C)c1cccc(Oc2ccccc2)n1` (stereo not drawn) [Compound 498] are 49 µg, > 0.1%, > 0.05% and 0.002%.
On to `CC(C)C(=Nc1cccc(C(F)(F)F)c1)OC(C)c1cccc(Oc2ccccc2)n1` (stereo not drawn) [Compound 499], for which the “LC50 HF” value in test [1] turned out to be 63 µg. Further, in test [2], the “LC50 TBW E (eggs)” value is recorded as > 0.1%. Besides, the “LC50 BBA” value in test [3] is > 0.05%. In addition, the “LC50 CL” value in test [4] came to 0.0024%.
Consider `COCc1c(F)c(F)c(COC(=Nc2ccc3c(c2)OCO3)C(C)C)c(F)c1F` [Compound 501], for which the “LC50 HF” value in test [1] amounted to 20 µg. The “LC50 TBW E (eggs)” value in test [2] was > 0.1%. In addition, the “LC50 BBA” value in test [3] was > 0.05%. Also, the “LC50 CL” value in test [4] is 0.00045%.
